Results: patent publication US9539252B2, “Piperazine-substituted benzothiophene derivatives as antipsychotic agents” (OTSUKA PHARMACEUTICAL CO., LTD., priority 2011, dated 2017)

Assay: Solubility in oil (sesame oil, benzyl benzoate), visual observation
Conditions: oil or lipid, thermodynamic from solid

| SMILES | solubility (benzyl benzoate) [mg/mL] | solubility (sesame oil) [mg/mL] |
| --- | --- | --- |
| CC(C)(C)C(=O)OCN1C(=O)CCc2ccc(OCCCCN3CCN(c4cccc5sccc45)CC3)cc21 [Example 15, 2,2-dimethylpropionic acid 7-[4-(4-benzo[b]thiophen-4-ylpiperazin-1-yl)butoxy]-2-oxo-3,4-dihydro-2H-quinolin-1-ylmethyl ester] | > 100 | – |
| O=C(OCN1C(=O)CCc2ccc(OCCCCN3CCN(c4cccc5sccc45)CC3)cc21)C1CCCCCC1 [Example 106, cycloheptanecarboxylic acid 7-[4-(4-benzo[b]thiophen-4-ylpiperazin-1-yl)butoxy]-2-oxo-3,4-dihydro-2H-quinolin-1-ylmethyl ester] | > 100 | – |
| CCCCCCCCCCCCCCCCOC(=O)OCN1C(=O)CCc2ccc(OCCCCN3CCN(c4cccc5sccc45)CC3)cc21 [Example 144, carbonic acid 7-[4-(4-benzo[b]thiophen-4-ylpiperazin-1-yl)butoxy]-2-oxo-3,4-dihydro-2H-quinolin-1-ylmethyl ester hexadecyl ester] | > 100 | > 100 |
| COC(=O)CNC(=O)OCn1c(=O)ccc2ccc(OCCCCN3CCN(c4cccc5sccc45)CC3)cc21 [Example 64, {7-[4-(4-benzo[b]thiophen-4-ylpiperazin-1-yl)butoxy]-2-oxo-2H-quinolin-1-ylmethoxycarbonylamino}acetic acid methyl ester] | > 100 | – |
| CCCCCCCCCCCCCCCCCC(=O)OCN1C(=O)CCc2ccc(OCCCCN3CCN(c4cccc5sccc45)CC3)cc21 [Example 48, octadecanoic acid 7-[4-(4-benzo[b]thiophen-4-ylpiperazin-1-yl)butoxy]-2-oxo-3,4-dihydro-2H-quinolin-1-ylmethyl ester] | > 100 | – |
| CCCCCCCCCC(=O)OCN1C(=O)CCc2ccc(OCCCCN3CCN(c4cccc5sccc45)CC3)cc21 [Example 68, decanoic acid 7-[4-(4-benzo[b]thiophen-4-ylpiperazin-1-yl)butoxy]-2-oxo-3,4-dihydro-2H-quinolin-1-ylmethyl ester] | > 100 | – |
| O=C(OCn1c(=O)ccc2ccc(OCCCCN3CCN(c4cccc5sccc45)CC3)cc21)N1CCOCC1 [Example 67, morpholine-4-carboxylic acid 7-[4-(4-benzo[b]thiophen-4-ylpiperazin-1-yl)butoxy]-2-oxo-2H-quinolin-1-ylmethyl ester] | > 100 | – |
| CCC(C)C(=O)OCn1c(=O)ccc2ccc(OCCCCN3CCN(c4cccc5sccc45)CC3)cc21 (stereo not drawn) [Example 87, 2-methylbutyric acid 7-[4-(4-benzo[b]thiophen-4-ylpiperazin-1-yl)butoxy]-2-oxo-2H-quinolin-1-ylmethyl ester] | > 100 | – |
| CCNC(=O)OCn1c(=O)ccc2ccc(OCCCCN3CCN(c4cccc5sccc45)CC3)cc21 [Example 55, N-ethylcarbamic acid 7-[4-(4-benzo[b]thiophen-4-ylpiperazin-1-yl)butoxy]-2-oxo-2H-quinolin-1-ylmethyl ester] | > 100 | – |
| CCN(CC)C(=O)OCn1c(=O)ccc2ccc(OCCCCN3CCN(c4cccc5sccc45)CC3)cc21 [Example 57, N,N-diethylcarbamic acid 7-[4-(4-benzo[b]thiophen-4-ylpiperazin-1-yl)butoxy]-2-oxo-2H-quinolin-1-ylmethyl ester] | > 100 | > 100 |
| CCCCCCCCCCOC(=O)OCn1c(=O)ccc2ccc(OCCCCN3CCN(c4cccc5sccc45)CC3)cc21 [Example 135, carbonic acid 7-[4-(4-benzo[b]thiophen-4-ylpiperazin-1-yl)butoxy]-2-oxo-2H-quinolin-1-ylmethyl ester decyl ester] | > 100 | > 100 |
| COC(=O)OCN1C(=O)CCc2ccc(OCCCCN3CCN(c4cccc5sccc45)CC3)cc21 [Example 72, carbonic acid 7-[4-(4-benzo[b]thiophen-4-ylpiperazin-1-yl)butoxy]-2-oxo-3,4-dihydro-2H-quinolin-1-ylmethyl ester methyl ester] | > 100 | – |
